Source: ChEMBL document CHEMBL4699440, “Comprehensive review on the anti-bacterial activity of 1,2,3-triazole hybrids” (Eur J Med Chem, 2019)
Values after ≈ are worked out from the molar mass of the structure shown.

Key:
Salmonella enterica = test: Antibacterial activity against Salmonella enterica MTCC 3224 incubated overnight by broth dilution technique; type: functional, organism-based
Pseudomonas aeruginosa [1] = test: Antibacterial activity against Pseudomonas aeruginosa MTCC 2453 incubated overnight by broth dilution technique; type: functional, organism-based
Enterococcus faecalis [2] = test: Antibacterial activity against Enterococcus faecalis MTCC 439 incubated overnight by broth dilution technique; type: functional, organism-based
Streptococcus pneumoniae = test: Antibacterial activity against Streptococcus pneumoniae MTCC 655 incubated overnight by broth dilution technique; type: functional, organism-based
Klebsiella pneumoniae = test: Antibacterial activity against Klebsiella pneumoniae ATCC 700603 incubated overnight by broth dilution technique; type: functional, organism-based
Escherichia coli [3] = test: Antibacterial activity against Escherichia coli ATCC 25922 incubated overnight by broth dilution technique; type: functional, organism-based
Bacillus spizizenii = test: Antibacterial activity against Bacillus subtilis ATCC 6633 incubated for 24 hrs by broth dilution method; type: functional
Escherichia coli [4] = test: Antibacterial activity against Escherichia coli ATCC 25922 incubated for 24 hrs by broth dilution method; type: functional
Staphylococcus aureus [5] = test: Antibacterial activity against Staphylococcus aureus ATCC 9144 incubated for 24 hrs by broth dilution method; type: functional
Proteus vulgaris = test: Antibacterial activity against Proteus vulgaris ATCC […] incubated for 24 hrs by broth dilution method; type: functional
Bacillus cereus = test: Antibacterial activity against Bacillus cereus ATCC 10876 incubated for 24 hrs by microdilution method; type: functional
Enterococcus faecalis [6] = test: Antibacterial activity against Enterococcus faecalis ATCC 29212 incubated for 24 hrs by microdilution method; type: functional
Staphylococcus aureus [7] = test: Antibacterial activity against Staphylococcus aureus ATCC 25923 incubated for 24 hrs by microdilution method; type: functional
Proteus mirabilis = test: Antibacterial activity against Proteus mirabilis ATCC 35659 incubated for 24 hrs by microdilution method; type: functional
Escherichia coli [8] = test: Antibacterial activity against Escherichia coli ATCC 25922 incubated for 24 hrs by microdilution method; type: functional
Pseudomonas aeruginosa [9] = test: Antibacterial activity against Pseudomonas aeruginosa ATCC 27853 incubated for 24 hrs by microdilution method; type: functional
Candida albicans = test: Antifungal activity against Candida albicans ATCC 50193 incubated for 24 hrs by microdilution method; type: functional
Aspergillus brasiliensis = test: Antifungal activity against Aspergillus brasiliensis ATCC 16404 incubated for 24 hrs by microdilution method; type: functional
Escherichia coli [10] = test: Antibacterial activity against Escherichia coli JM109 after overnight incubation by CLSI M7-A9 based method; type: functional
Escherichia coli [11] = test: Antibacterial activity against Escherichia coli ATCC 25922 after overnight incubation by CLSI M7-A9 based method; type: functional
Enterococcus faecalis [12] = test: Antibacterial activity against Enterococcus faecalis ATCC 29212 after overnight incubation by CLSI M7-A9 based method; type: functional
Staphylococcus aureus [13] = test: Antibacterial activity against Staphylococcus aureus CIP 6525 after overnight incubation by CLSI M7-A9 based method; type: functional

Question: What does the source list for `Fc1ccc(-n2cc(COc3cccc4cccnc34)nn2)cc1`?
Answer: IC50 (Salmonella enterica): 106 µg/mL (≈ 331 µM); IC50 (Pseudomonas aeruginosa [1]): 106 µg/mL (≈ 331 µM); IC50 (Enterococcus faecalis [2]): 106 µg/mL (≈ 331 µM); IC50 (Streptococcus pneumoniae): 106 µg/mL (≈ 331 µM); IC50 (Klebsiella pneumoniae): 106 µg/mL (≈ 331 µM); IC50 (Escherichia coli [3]): 106 µg/mL (≈ 331 µM)

Question: Which IC50 (Salmonella enterica) does the source give for `Oc1cccc2cccnc12` [OXYQUINOLINE] here?
Answer: 15.6 µg/mL (≈ 108 µM)

Question: What about the IC50 (Pseudomonas aeruginosa [1]) of the same compound?
Answer: 15.6 µg/mL (≈ 108 µM)

Question: What about the IC50 (Enterococcus faecalis [2]) of the same compound?
Answer: 15.6 µg/mL (≈ 108 µM)

Question: What about the IC50 (Streptococcus pneumoniae) of the same compound?
Answer: 15.6 µg/mL (≈ 108 µM)

Question: And the IC50 (Klebsiella pneumoniae)?
Answer: 15.6 µg/mL (≈ 108 µM)

Question: And the IC50 (Escherichia coli [3])?
Answer: 15.6 µg/mL (≈ 108 µM)

Question: What does the source list for `O=C(/C=C1\C(=O)N(Cc2cn(Cc3ccccc3)nn2)c2ccccc21)c1cc(Cl)cc(Cl)c1OCc1cn(Cc2ccccc2)nn1`?
Answer: MIC (Bacillus spizizenii): 1.56 µg/mL (≈ 2.31 µM); MIC (Escherichia coli [4]): 1.56 µg/mL (≈ 2.31 µM); MIC (Staphylococcus aureus [5]): 1.56 µg/mL (≈ 2.31 µM); MIC (Proteus vulgaris): 1.56 µg/mL (≈ 2.31 µM)

Question: Which MIC (Bacillus spizizenii) does the source give for GENTAMICIN here?
Answer: 1.56 µg/mL

Question: What about the MIC (Escherichia coli [4]) of the same compound?
Answer: 1.56 µg/mL

Question: And the MIC (Staphylococcus aureus [5])?
Answer: 1.56 µg/mL

Question: And the MIC (Proteus vulgaris)?
Answer: 1.56 µg/mL

Question: Which results are given for `CCCCCCCCCCCCCCn1nnc(-c2n[nH]c(=S)n2-c2ccccc2)c1-c1n[nH]c(=S)n1-c1ccccc1`?
Answer: MIC (Bacillus cereus): 2 µg/mL (≈ 3.25 µM); MIC (Enterococcus faecalis [6]): 2 µg/mL (≈ 3.25 µM); MIC (Staphylococcus aureus [7]): 2 µg/mL (≈ 3.25 µM); MIC (Proteus mirabilis): 2 µg/mL (≈ 3.25 µM); MIC (Escherichia coli [8]): 2 µg/mL (≈ 3.25 µM); MIC (Pseudomonas aeruginosa [9]): 2 µg/mL (≈ 3.25 µM); MIC (Candida albicans): 2 µg/mL (≈ 3.25 µM); MIC (Aspergillus brasiliensis): 2 µg/mL (≈ 3.25 µM)

Question: What does the source list for `C[C@H](c1ccccc1)N(CC(N)=O)C(=O)CN(C(=O)CN(Cc1cn(Cc2ccccc2)n[n+]1C)C(=O)CN(C(=O)CN(C(=O)CN(Cc1cn(Cc2ccccc2)n[n+]1C)C(=O)CN(C(=O)CN(C(=O)CNCc1cn(Cc2ccccc2)n[n+]1C)[C@H](C)c1ccccc1)[C@H](C)c1ccccc1)[C@H](C)c1ccccc1)[C@H](C)c1ccccc1)[C@H](C)c1ccccc1`?
Answer: MIC (Escherichia coli [10]): > 1.6 µg/mL; MIC (Escherichia coli [11]): > 1.6 µg/mL; MIC (Enterococcus faecalis [12]): > 1.6 µg/mL; MIC (Staphylococcus aureus [13]): > 1.6 µg/mL

Question: What does the source list for `CCCCCCCCCCCCCCn1nnc(-c2n[nH]c(=S)n2N)c1-c1n[nH]c(=S)n1N`?
Answer: MIC (Bacillus cereus): 1 µg/mL (≈ 2.03 µM); MIC (Enterococcus faecalis [6]): 1 µg/mL (≈ 2.03 µM); MIC (Staphylococcus aureus [7]): 1 µg/mL (≈ 2.03 µM); MIC (Proteus mirabilis): 1 µg/mL (≈ 2.03 µM); MIC (Escherichia coli [8]): 1 µg/mL (≈ 2.03 µM); MIC (Pseudomonas aeruginosa [9]): 1 µg/mL (≈ 2.03 µM); MIC (Candida albicans): 1 µg/mL (≈ 2.03 µM); MIC (Aspergillus brasiliensis): 1 µg/mL (≈ 2.03 µM)

Question: How did the IC50 (Salmonella enterica) turn out when `O=[N+]([O-])c1ccc(-n2cc(COc3cccc4cccnc34)nn2)cc1` was run?
Answer: 106 µg/mL (≈ 305 µM)

Question: What about the IC50 (Pseudomonas aeruginosa [1]) of the same compound?
Answer: 106 µg/mL (≈ 305 µM)

Question: What about the IC50 (Enterococcus faecalis [2]) of the same compound?
Answer: 106 µg/mL (≈ 305 µM)

Question: What about the IC50 (Streptococcus pneumoniae) of the same compound?
Answer: 106 µg/mL (≈ 305 µM)

Question: And the IC50 (Klebsiella pneumoniae)?
Answer: 106 µg/mL (≈ 305 µM)

Question: And the IC50 (Escherichia coli [3])?
Answer: 106 µg/mL (≈ 305 µM)

Question: Which results are given for `CCCCCCCCn1nnc(-c2n[nH]c(=S)n2N)c1-c1n[nH]c(=S)n1N`?
Answer: MIC (Bacillus cereus): 1 µg/mL (≈ 2.44 µM); MIC (Enterococcus faecalis [6]): 1 µg/mL (≈ 2.44 µM); MIC (Staphylococcus aureus [7]): 1 µg/mL (≈ 2.44 µM); MIC (Proteus mirabilis): 1 µg/mL (≈ 2.44 µM); MIC (Escherichia coli [8]): 1 µg/mL (≈ 2.44 µM); MIC (Pseudomonas aeruginosa [9]): 1 µg/mL (≈ 2.44 µM); MIC (Candida albicans): 1 µg/mL (≈ 2.44 µM); MIC (Aspergillus brasiliensis): 1 µg/mL (≈ 2.44 µM)

Question: Which IC50 (Salmonella enterica) does the source give for `NS(=O)(=O)c1ccc(-n2cc(COc3cccc4cccnc34)nn2)cc1` here?
Answer: 106 µg/mL (≈ 278 µM)

Question: And the IC50 (Pseudomonas aeruginosa [1])?
Answer: 106 µg/mL (≈ 278 µM)

Question: And the IC50 (Enterococcus faecalis [2])?
Answer: 106 µg/mL (≈ 278 µM)

Question: What about the IC50 (Streptococcus pneumoniae) of the same compound?
Answer: 106 µg/mL (≈ 278 µM)

Question: What about the IC50 (Klebsiella pneumoniae) of the same compound?
Answer: 106 µg/mL (≈ 278 µM)

Question: What about the IC50 (Escherichia coli [3]) of the same compound?
Answer: 106 µg/mL (≈ 278 µM)

Question: `C[C@H](c1ccccc1)N(CC(N)=O)C(=O)CN(C(=O)CN(Cc1cn(CCN)n[n+]1C)C(=O)CN(C(=O)CN(C(=O)CN(Cc1cn(CCN)n[n+]1C)C(=O)CN(C(=O)CN(C(=O)CN(Cc1cn(CCN)n[n+]1C)C(=O)CN(C(=O)CN(C(=O)CNCc1cn(CCN)n[n+]1C)[C@H](C)c1ccccc1)[C@H](C)c1ccccc1)[C@H](C)c1ccccc1)[C@H](C)c1ccccc1)[C@H](C)c1ccccc1)[C@H](C)c1ccccc1)[C@H](C)c1ccccc1` was tested. Which MIC (Escherichia coli [10]) did it give?
Answer: > 1.6 µg/mL

Question: What about the MIC (Escherichia coli [11]) of the same compound?
Answer: > 1.6 µg/mL

Question: And the MIC (Enterococcus faecalis [12])?
Answer: > 1.6 µg/mL

Question: What about the MIC (Staphylococcus aureus [13]) of the same compound?
Answer: > 1.6 µg/mL

Question: With `CCCCCCCCCCCCn1nnc(-c2n[nH]c(=S)n2-c2ccccc2)c1-c1n[nH]c(=S)n1-c1ccccc1` as the compound, how does the MIC (Bacillus cereus) read?
Answer: 2 µg/mL (≈ 3.4 µM)

Question: And the MIC (Enterococcus faecalis [6])?
Answer: 2 µg/mL (≈ 3.4 µM)

Question: And the MIC (Staphylococcus aureus [7])?
Answer: 2 µg/mL (≈ 3.4 µM)

Question: What about the MIC (Proteus mirabilis) of the same compound?
Answer: 2 µg/mL (≈ 3.4 µM)

Question: What about the MIC (Escherichia coli [8]) of the same compound?
Answer: 2 µg/mL (≈ 3.4 µM)

Question: And the MIC (Pseudomonas aeruginosa [9])?
Answer: 2 µg/mL (≈ 3.4 µM)

Question: What about the MIC (Candida albicans) of the same compound?
Answer: 2 µg/mL (≈ 3.4 µM)

Question: What about the MIC (Aspergillus brasiliensis) of the same compound?
Answer: 2 µg/mL (≈ 3.4 µM)

Question: With `C[C@H](c1ccccc1)N(CC(N)=O)C(=O)CN(C(=O)CN(Cc1cn(CC2CCCCC2)n[n+]1C)C(=O)CN(C(=O)CN(C(=O)CN(Cc1cn(CC2CCCCC2)n[n+]1C)C(=O)CN(C(=O)CN(C(=O)CNCc1cn(CC2CCCCC2)n[n+]1C)[C@H](C)c1ccccc1)[C@H](C)c1ccccc1)[C@H](C)c1ccccc1)[C@H](C)c1ccccc1)[C@H](C)c1ccccc1` as the compound, how does the MIC (Escherichia coli [10]) read?
Answer: > 1.6 µg/mL

Question: What about the MIC (Escherichia coli [11]) of the same compound?
Answer: > 1.6 µg/mL

Question: What about the MIC (Enterococcus faecalis [12]) of the same compound?
Answer: > 1.6 µg/mL

Question: And the MIC (Staphylococcus aureus [13])?
Answer: > 1.6 µg/mL

Question: For `CCCCCCCCCCn1nnc(-c2n[nH]c(=S)n2-c2ccccc2)c1-c1n[nH]c(=S)n1-c1ccccc1`, which MIC (Bacillus cereus) is on record?
Answer: 2 µg/mL (≈ 3.57 µM)

Question: What about the MIC (Enterococcus faecalis [6]) of the same compound?
Answer: 2 µg/mL (≈ 3.57 µM)

Question: And the MIC (Staphylococcus aureus [7])?
Answer: 2 µg/mL (≈ 3.57 µM)

Question: What about the MIC (Proteus mirabilis) of the same compound?
Answer: 2 µg/mL (≈ 3.57 µM)

Question: What about the MIC (Escherichia coli [8]) of the same compound?
Answer: 2 µg/mL (≈ 3.57 µM)

Question: And the MIC (Pseudomonas aeruginosa [9])?
Answer: 2 µg/mL (≈ 3.57 µM)

Question: And the MIC (Candida albicans)?
Answer: 2 µg/mL (≈ 3.57 µM)

Question: And the MIC (Aspergillus brasiliensis)?
Answer: 2 µg/mL (≈ 3.57 µM)
